Results published in patent publication US20120309798A1, “Tumour Treatment Agents and Method” (Vivolux AB, priority 2009, published 2012).
pIC50: −log10 of the molar value. Read-outs that look alike come from different tables or passages of the source.

Assays:
[1] = tested on: CLL (Chronic Lymphocytic Leukemia) patient tumor cells; assay: FMCA, patient tumor samples, CLL; format: cell-based; settings: Homo sapiens, range over n=9 samples
Text: (§1) Cell culture. Patient tumor samples (98) and preparations (4) of normal peripheral blood mononuclear cells (PBMC), detailed in Table 1, were used to determine the activity of VLX50 and, for comparison, six other cytotoxic drugs chosen to represent different mechanistic classes.
(§2) The tumor samples were obtained by bone marrow/peripheral blood sampling, routine surgery or diagnostic biopsy. Leukemic cells and PBMCs were isolated by 1.077 g ml-1 Ficoll-Paque centrifugation (Larsson et al., 1992). Tumor tissue from solid tumor samples was minced into small pieces and tumor cells were isolated by collagenase dispersion followed by Percoll density gradient centrifugation (Csoka et al., 1994). […] Cell viability was determined by trypan blue exclusion test and the proportion of tumor cells in the preparation was judged by inspection of May-Grunvald-Giemsa stained cytospin slides (FIG. 1a). […]
(§3) Fluorometric Microculture Cytotoxicity Assay. The Fluorometric Microculture Cytotoxicity Assay, FMCA, described in detail previously (Lindhagen et al., 2008), is based on measurement of fluorescence generated from hydrolysis of fluorescein diacetate (FDA) to fluorescein by cells with intact plasma membranes. […] Quality criteria for a successful assay included a mean coefficient of variation of less than 30% in the control and a fluorescence signal in control wells of more than 5 times the blank. […]

[2] = tested on: CML (Chronic Myelocytic Leukemia) patient tumor cells; assay: FMCA, patient tumor samples, CML; format: cell-based; settings: Homo sapiens
Text: as §1, §2, §3

Q: `COCCCNC(=S)N/N=C\c1ccccn1` [VLX50, N1-(3-methoxypropyl)-2-(pyridylmethylidene)-hydrazine-1-carbothioamide] was tested. Which pIC50 [1] did it give?
A: 5.03 to 7.46

Q: And the pIC50 ([2]; n=3, 72 h FMCA, read-out: Median IC50)?
A: 5.29

Q: And the pIC50 ([2]; range over n=3 samples, read-out: IC50 Range)?
A: 5.19 to 5.68
